In ChEMBL document CHEMBL1201862, “PubChem BioAssay data set” (2004):
Active and inactive are the calls of the source.

Columns and labels:
[1] = molecular target: T1, Carboxy-terminal domain RNA polymerase II polypeptide A small phosphatase 1 (Homo sapiens, UniProt Q9GZU7); test: CTDSP1 inhibitors, concentration-response, biochemical, absorbance readout, ultra-high-throughput screen actives (AID 540297); type: functional
T1 sequence (Q9GZU7 whole entry): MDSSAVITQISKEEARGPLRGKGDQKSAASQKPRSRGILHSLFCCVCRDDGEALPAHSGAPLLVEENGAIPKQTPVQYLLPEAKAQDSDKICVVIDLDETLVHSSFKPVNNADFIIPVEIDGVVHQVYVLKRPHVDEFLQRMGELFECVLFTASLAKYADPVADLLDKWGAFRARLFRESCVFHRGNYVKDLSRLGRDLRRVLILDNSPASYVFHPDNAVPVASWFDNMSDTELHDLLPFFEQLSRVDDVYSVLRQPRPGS

[2] = Luminescence Cell-Based Dose Confirmation HTS to Identify Activators of 5'UTR Stem-Loop Driven Alpha-Synuclein mRNA Translation in H4 Neuroglioblastoma Cells. [Related pubchem assays: 1829 (Project Summary), 1814 (Primary HTS)]; type: functional
[3] = Luminescence Cell-Based Dose Response HTS to Identify Activators of Luciferase Translation or Activity in H4 […] Cells. [Related pubchem assays: 1829 (Project Summary), 1814 (Primary HTS)]; type: functional
H4 = test: Luminescence Cell-Based Dose Response HTS to Identify Activators of 5'UTR Stem-Loop Driven Prion Protein mRNA Translation in H4 Neuroglioblastoma Cells. [Related pubchem assays: 1829 (Project Summary), 1814 (Primary HTS)]; type: functional; settings: Homo sapiens
[4] = blockers of HIV-1 envelope-mediated cell-cell fusion – cherry-pick, dose response (AID 652057); type: functional, cell-based
[5] = blockers of HIV-1 ZM109 envelope-driven cell-cell fusion – HeLa effector, CEM target cells, luciferase, cherry-pick, dose response (AID 652058); type: functional, cell-based;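 note: luciferase signal from HIV-1 Env mediated cell-cell fusion of effector and target cells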
[6] = off-target signal loss in HeLa-CEM21 co-culture – HeLa F-luc CTL cells, cherry-picked, counter-screen for HIV-1 Env fusion inhibitor project, dose response (AID 652040); type: functional, cell-based;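 note: potency for signal decrease marking cytotoxic or nonspecific inhibition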
[7] = HIV-1 AD8 envelope cell-cell fusion blockers – cherry-pick, dose response (AID 652062); type: functional, cell-based;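 note: luciferase signal from cell-cell fusion driven by HIV-1 clade B AD8 Env; potency is for inhibitors of fusion seen as a drop in luminescence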
[8] = P. falciparum Dd2 growth inhibitors, dose response, SYBR Green, cherry-picked samples (AID 1159567); type: functional, cell-based
[9] = NIH-3T3 fibroblast cytotoxicity, dose response, cytotoxicity control, cell-based, fluorescence, Alamar Blue, secondary assay (AID 2327); type: functional;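 note: NIH-3T3 mouse fibroblasts cultured with fluconazole at 8 µg/mL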
[10] = fluconazole-exposed Candida albicans growth modulators – fluorescence, retest, confirmation (AID 2467); type: functional, cell-based
[11] = viability of PTEN-deleted HCT116 cells – cell-based, HCT116 PTEN knockout, dose response (AID 1047); type: functional;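 note: HCT116 colon tumor cells with PTEN knocked out; cells exposed to compound for 60 hours before readout; potency for loss of cell viability measured by luminescence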
[12] = viability of HCT116 lacking mutant beta-catenin – cell-based, human colon tumor, dose response (AID 1045); type: functional;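 note: HCT116 colon tumor cells with beta catenin knocked out; cells exposed to compound for 60 hours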
H9c2 = test: cells; type: functional, cell-based; settings: Rattus norvegicus, H9c2, Myocardium;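 note: confirmatory concentration-response retest of ultra-high-throughput screening hits for modulation of myocardial damage; cell death induced by hydrogen peroxide oxidative stress; compound pretreatment for 60 min then peroxide exposure for 2 h; potency is for protecting the cells against peroxide damage rather than for killing them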
[13] = test system: Streptococcus sp. 'group A'; test: Streptococcus pyogenes SK(-)GAS viability under kanamycin – luminescence, BacTiterGlo, confirmation, counter-screen for streptokinase expression inhibitor project, dose response (AID 1900); type: functional, organism-based
Streptokinase A = molecular target: T2, Streptokinase A (Streptococcus pyogenes serotype M1, UniProt P10520); test: viability-normalized secreted streptokinase activity reduction – plasminogen activation absorbance, OD405, dose response (AID 1914); type: functional, Streptococcus pyogenes M1 GAS;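 note: secreted streptokinase activity via plasminogen activation per viability signal from cell pellet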
T2 sequence (P10520 whole entry): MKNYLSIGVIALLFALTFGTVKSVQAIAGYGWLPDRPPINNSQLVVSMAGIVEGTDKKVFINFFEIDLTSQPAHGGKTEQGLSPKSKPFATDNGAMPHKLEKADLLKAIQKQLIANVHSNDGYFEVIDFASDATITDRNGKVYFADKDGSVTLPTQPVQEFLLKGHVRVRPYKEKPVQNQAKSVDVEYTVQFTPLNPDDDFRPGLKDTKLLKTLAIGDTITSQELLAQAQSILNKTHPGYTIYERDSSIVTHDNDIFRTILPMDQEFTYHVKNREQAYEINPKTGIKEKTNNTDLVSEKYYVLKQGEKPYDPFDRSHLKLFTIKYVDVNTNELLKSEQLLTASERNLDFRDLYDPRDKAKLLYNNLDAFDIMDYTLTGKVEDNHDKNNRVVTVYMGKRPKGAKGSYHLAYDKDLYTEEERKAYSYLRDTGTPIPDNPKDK

Streptococcus = test: GAS UMAA2166 growth inhibition – luminescence, BacTiterGlo, counter-screen for streptokinase expression inhibitor project, dose response (AID 1915); type: functional, organism-based;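 note: potency for reduction of bacterial viability or growth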
INS1 = test: INS-1E survival protection against cytokine death – cell-based, luminescence, retest, dose response (AID 449756); type: functional; settings: Rattus norvegicus;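 note: cell death triggered by IL-1 beta plus TNF-alpha plus IFN-gamma mixture; protective hits raise ATP signal compared with cytokine alone wells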
[14] = Trypanosoma cruzi growth suppression in host cells – NIH3T3 host cells, beta-gal luminescence, confirmation (AID 2044); type: functional, cell-based;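 note: intracellular parasites grown in NIH/3T3 mouse fibroblasts as host cells; luminescent beta-galactosidase reporter signal from transgenic T. cruzi replicating inside host cells; inhibitors lower the luminescence signal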
[15] = NIH3T3 cell viability loss – ATP luminescence, mouse fibroblasts, counter-screen, dose response (AID 2010); type: functional, cell-based;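 note: cells exposed to compound for about 90 hours before reading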
[16] = Luminescence Cell-Based Dose Retest to Confirm Inhibitors of Cancer Stem Cells. [Related pubchem assays (depositor defined):AID2717, AID2721]; type: functional; settings: Homo sapiens

**Q.** For `O=C(COC(=O)c1ccc(Br)o1)NCc1ccco1`, which IC50 [1] is on record?
**A.** The IC50 was 9.79 µM (active).

**Q.** For `O=C1C2C3C=CC(C4CC34)C2C(=O)N1/N=C/c1c[nH]c2ccccc12` (centres undefined), which EC50 [2] is on record?
**A.** The EC50 was 11 µM (active).

**Q.** What about the EC50 [3] of the same molecule?
**A.** The EC50 was > 120 µM (not active).

**Q.** And the EC50 (H4)?
**A.** Its EC50 is 14.9 µM (active).

**Q.** Which results are given for `CC(C)[C@H](CN(N=O)[C@@H](Cc1ccccc1)CN(C)N=O)N(CCc1ccccc1)N=O`?
**A.** AC50 [4]: 5.66 µM (active); AC50 [5]: 12.3 µM (active); AC50 [6]: 10.8 µM (active); AC50 [7]: 15.5 µM (active)

**Q.** Which AC50 [8] does the source give for `C/C=C/c1ccc([C@H]2[C@@H](CO)N(C(=O)C3CCCC3)[C@H]2CNCCC)cc1` here?
**A.** Its AC50 is 4.85 µM (active).

**Q.** For `O=C(C1CCC1)N1CC(=O)N2[C@H](CO)[C@@H](c3ccc(C#CCc4ccccc4)cc3)[C@H]2C1`, which AC50 [8] is on record?
**A.** The AC50 was 9.44 µM (active).

**Q.** With `CCCc1cc(=O)oc2cc(OCC(=O)NC(Cc3c[nH]c4ccc(O)cc34)C(=O)O)c(Cl)cc12` (centres undefined) as the molecule, how does the IC50 [1] read?
**A.** Its IC50 is 32.7 µM (active).

**Q.** What does the source list for `COc1ccc(C2Nc3ccccc3C(=O)N2O)cc1OC` (centres undefined)?
**A.** EC50 [9]: > 150 µM (inactive); EC50 [10]: > 38 µM (not active)

**Q.** For `CC(C)(COC(=O)C(c1ccccc1)c1ccccc1)CN1CCOCC1`, which AC50 [4] is on record?
**A.** Its AC50 is 4.96 µM (active).

**Q.** And the AC50 [5]?
**A.** The AC50 was 2.42 µM (active).

**Q.** What about the AC50 [6] of the same molecule?
**A.** Its AC50 is 4.01 µM (active).

**Q.** And the AC50 [7]?
**A.** Its AC50 is 1.83 µM (active).

**Q.** For `CC(C)C[C@@H](CN(C)N=O)N(C[C@H](Cc1ccccc1)N(CCc1ccccc1)N=O)N=O`, which AC50 [4] is on record?
**A.** The AC50 was 4.34 µM (active).

**Q.** What about the AC50 [5] of the same molecule?
**A.** The AC50 was 5.62 µM (active).

**Q.** And the AC50 [6]?
**A.** Its AC50 is 7.74 µM (active).

**Q.** And the AC50 [7]?
**A.** Its AC50 is 7.36 µM (active).

**Q.** Which EC50 [11] does the source give for `Cc1ccc2nc(O)c(CN(Cc3ccco3)S(=O)(=O)c3c(C)ccc4nsnc34)cc2c1` here?
**A.** Its EC50 is 13.2 µM (active).

**Q.** And the EC50 [12]?
**A.** Its EC50 is 14.8 µM (active).

**Q.** And the IC50 (H9c2)?
**A.** Its IC50 is 8.78 µM (active).

**Q.** With `O=C(CN1C(=O)S/C(=C\c2ccc(O)c([N+](=O)[O-])c2)C1=O)Nc1ccc(N2CCOCC2)cc1` as the molecule, how does the IC50 [1] read?
**A.** The IC50 was 2.65 µM (active).

**Q.** What does the source list for `CCOC(=O)c1cc(O)n2c(n1)nc1ccccc12`?
**A.** EC50 [2]: 15.8 µM (active); EC50 [3]: 11.4 µM (active); EC50 (H4): 20.4 µM (active)

**Q.** Which EC50 [13] does the source give for `c1ccc2c(c1)ncn2CCCOc1ccc2c(c1)CCC2` here?
**A.** The EC50 was 22.4 µM (active).

**Q.** What about the EC50 (Streptokinase A) of the same molecule?
**A.** Its EC50 is > 150 µM (not active).

**Q.** And the EC50 [11]?
**A.** The EC50 was 30.5 µM (active).

**Q.** What about the EC50 [12] of the same molecule?
**A.** The EC50 was 21.6 µM (active).

**Q.** And the EC50 (Streptococcus)?
**A.** Its EC50 is > 150 µM (not active).

**Q.** And the AC50 (INS1)?
**A.** Its AC50 is 7.64 µM (active).

**Q.** With `CC1=CC(C)(C)n2c(O)c(C3=NC(=S)NC3=O)c3cc(OC(=O)c4cccc5ccccc45)cc1c32` as the molecule, how does the EC50 [11] read?
**A.** The EC50 was 19.6 µM (active).

**Q.** And the EC50 [12]?
**A.** Its EC50 is 24 µM (active).

**Q.** For `Cc1cccc(OCCNc2cc(N3CCN(C)CC3)ccc2[N+](=O)[O-])c1`, which EC50 [14] is on record?
**A.** The EC50 was 0.495 µM (active).

**Q.** What about the EC50 [11] of the same molecule?
**A.** Its EC50 is 19.8 µM (active).

**Q.** What about the EC50 [15] of the same molecule?
**A.** Its EC50 is > 60 µM (not active).

**Q.** What about the EC50 [12] of the same molecule?
**A.** The EC50 was 86.1 µM (active).

**Q.** What about the AC50 [16] of the same molecule?
**A.** The AC50 was 1.47 µM (active).

**Q.** What does the source list for `N=c1c2c(ncn1CCN1CCOCC1)Oc1ccc3ccccc3c1C2c1ccccc1` (centres undefined)?
**A.** EC50 [11]: 16.5 µM (active); EC50 [12]: 15.3 µM (active)

**Q.** With `COc1ccc(NC(=O)Nc2cccc3cccnc23)cc1` as the molecule, how does the EC50 [2] read?
**A.** Its EC50 is 21.7 µM (active).

**Q.** What about the EC50 [3] of the same molecule?
**A.** The EC50 was 5.48 µM (active).

**Q.** And the EC50 (H4)?
**A.** Its EC50 is 21.2 µM (active).

**Q.** With `CCOc1ccc(C2CC(c3ccc(CC)cc3)Nc3nc(N)nn32)cc1` (centres undefined) as the molecule, how does the EC50 [2] read?
**A.** Its EC50 is > 120 µM (not active).

**Q.** And the EC50 [3]?
**A.** Its EC50 is 10.5 µM (active).

**Q.** What about the EC50 (H4) of the same molecule?
**A.** Its EC50 is 19.7 µM (active).
